Blank lines part the entries; values can stand above or below the compound they belong to.
Test system: K12877-001-R-J1-PDC complex spheroid viability
Assay: Anticancer human tumor K12877-001-R-J1-PDC patient-derived lung adenocarcinoma cell line growth inhibition [RAS]
Settings: for IC50: curve of first compound; for viability, T/C: stronger effect = lower value
How it was run: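 Tumour cells grown as complex spheroids with HUVEC endothelial cells and mesenchymal stem cells, treated with RAS pathway inhibitor combinations. Each agent spans half-log steps from near clinical Cmax, or 10 microM where Cmax is unknown.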

[1] = second compound 0.000949 µM, first compound 0.0316 µM
[2] = second compound 0.000949 µM, first compound 0.1 µM
[3] = second compound 0.003 µM, first compound 0.0316 µM
[4] = second compound 0.003 µM, first compound 0.1 µM
[5] = second compound 0.00949 µM, first compound 0.0316 µM
[6] = second compound 0.00949 µM, first compound 0.1 µM
[7] = second compound 0.03 µM, first compound 0.0316 µM
[8] = second compound 0.03 µM, first compound 0.1 µM
[9] = second compound 0.0949 µM, first compound 0.0316 µM
[10] = second compound 0.0949 µM, first compound 0.1 µM
[11] = second compound 0.3 µM, first compound 0.0316 µM
[12] = second compound 0.3 µM, first compound 0.1 µM
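Further: spheroids exposed to agents for one week before readout.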
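Wherever viability, T/C is given: tumour cells co-cultured with HUVEC and mesenchymal stem cells in spheroids.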

- IC50 (second compound 0.000949 µM): 28.4 nM
- IC50 (second compound 0.003 µM): 23.4 nM
- IC50 (second compound 0.00949 µM): 17.7 nM
- IC50 (second compound 0.03 µM): 13.9 nM
- IC50 (second compound 0.0949 µM): 9.11 nM
- IC50 (second compound 0.3 µM): 6.13 nM
Structure (SMILES): CC(C)n1nc(-c2ccc3oc(N)nc3c2)c2c(N)ncnc21 + CCn1c(-c2cc(N3CCN(C)CC3)cnc2C(C)OC)c2c3cc(ccc31)-c1csc(n1)CC(NC(=O)C1CC1C)C(=O)N1CCCC(N1)C(=O)OCC(C)(C)C2
- viability, T/C (second compound 0.000949 µM, first compound 0.000316 µM): 73.8%
- viability, T/C (second compound 0.000949 µM, first compound 0.001 µM): 74.5%
- viability, T/C (second compound 0.000949 µM, first compound 0.00316 µM): 95.7%
- viability, T/C (second compound 0.000949 µM, first compound 0.01 µM): 104%
- viability, T/C [1]: 46.1%
- viability, T/C [2]: 24.8%
- viability, T/C (second compound 0.003 µM, first compound 0.000316 µM): 71.2%
- viability, T/C (second compound 0.003 µM, first compound 0.001 µM): 74%
- viability, T/C (second compound 0.003 µM, first compound 0.00316 µM): 69.9%
- viability, T/C (second compound 0.003 µM, first compound 0.01 µM): 90.8%
- viability, T/C [3]: 40.6%
- viability, T/C [4]: 22.1%
- viability, T/C (second compound 0.00949 µM, first compound 0.000316 µM): 64.1%
- viability, T/C (second compound 0.00949 µM, first compound 0.001 µM): 65.4%
- viability, T/C (second compound 0.00949 µM, first compound 0.00316 µM): 76.6%
- viability, T/C (second compound 0.00949 µM, first compound 0.01 µM): 75.4%
- viability, T/C [5]: 29.3%
- viability, T/C [6]: 17.3%
- viability, T/C (second compound 0.03 µM, first compound 0.000316 µM): 77.1%
- viability, T/C (second compound 0.03 µM, first compound 0.001 µM): 92.2%
- viability, T/C (second compound 0.03 µM, first compound 0.00316 µM): 110%
- viability, T/C (second compound 0.03 µM, first compound 0.01 µM): 61.1%
- viability, T/C [7]: 28%
- viability, T/C [8]: 16.2%
- viability, T/C (second compound 0.0949 µM, first compound 0.000316 µM): 103%
- viability, T/C (second compound 0.0949 µM, first compound 0.001 µM): 102%
- viability, T/C (second compound 0.0949 µM, first compound 0.00316 µM): 76.5%
- viability, T/C (second compound 0.0949 µM, first compound 0.01 µM): 49.1%
- viability, T/C [9]: 22.3%
- viability, T/C [10]: 13.6%
- viability, T/C (second compound 0.3 µM, first compound 0.000316 µM): 79.1%
- viability, T/C (second compound 0.3 µM, first compound 0.001 µM): 92.5%
- viability, T/C (second compound 0.3 µM, first compound 0.00316 µM): 60.3%
- viability, T/C (second compound 0.3 µM, first compound 0.01 µM): 40.3%
- viability, T/C [11]: 19.3%
- viability, T/C [12]: 11.7%

- IC50 (second compound 0.000949 µM): 4010 nM
- IC50 (second compound 0.003 µM): 1990 nM
- IC50 (second compound 0.00949 µM): 1840 nM
- IC50 (second compound 0.03 µM): 889 nM
- IC50 (second compound 0.0949 µM): 545 nM
- IC50 (second compound 0.3 µM): 382 nM
Structure (SMILES): CC1(O)CCCC1n1c(=O)c(C(F)F)cc2cnc(NC3CCN(S(C)(=O)=O)CC3)nc21 (centres undefined) + CCn1c(-c2cc(N3CCN(C)CC3)cnc2C(C)OC)c2c3cc(ccc31)-c1csc(n1)CC(NC(=O)C1CC1C)C(=O)N1CCCC(N1)C(=O)OCC(C)(C)C2
- viability, T/C [1]: 95.9%
- viability, T/C [2]: 78%
- viability, T/C (second compound 0.000949 µM, first compound 0.316 µM): 80.6%
- viability, T/C (second compound 0.000949 µM, first compound 1 µM): 75.6%
- viability, T/C (second compound 0.000949 µM, first compound 3.16 µM): 64.5%
- viability, T/C (second compound 0.000949 µM, first compound 10 µM): 3.86%
- viability, T/C [3]: 68.9%
- viability, T/C [4]: 74%
- viability, T/C (second compound 0.003 µM, first compound 0.316 µM): 64.5%
- viability, T/C (second compound 0.003 µM, first compound 1 µM): 56.2%
- viability, T/C (second compound 0.003 µM, first compound 3.16 µM): 46.3%
- viability, T/C (second compound 0.003 µM, first compound 10 µM): 3.15%
- viability, T/C [5]: 69.5%
- viability, T/C [6]: 75.4%
- viability, T/C (second compound 0.00949 µM, first compound 0.316 µM): 46.4%
- viability, T/C (second compound 0.00949 µM, first compound 1 µM): 56.5%
- viability, T/C (second compound 0.00949 µM, first compound 3.16 µM): 48.5%
- viability, T/C (second compound 0.00949 µM, first compound 10 µM): 2.9%
- viability, T/C [7]: 98.8%
- viability, T/C [8]: 82%
- viability, T/C (second compound 0.03 µM, first compound 0.316 µM): 47.6%
- viability, T/C (second compound 0.03 µM, first compound 1 µM): 58.9%
- viability, T/C (second compound 0.03 µM, first compound 3.16 µM): 46%
- viability, T/C (second compound 0.03 µM, first compound 10 µM): 2.97%
- viability, T/C [9]: 92%
- viability, T/C [10]: 62.1%
- viability, T/C (second compound 0.0949 µM, first compound 0.316 µM): 45.7%
- viability, T/C (second compound 0.0949 µM, first compound 1 µM): 50.4%
- viability, T/C (second compound 0.0949 µM, first compound 3.16 µM): 41.6%
- viability, T/C (second compound 0.0949 µM, first compound 10 µM): 2.68%
- viability, T/C [11]: 76.7%
- viability, T/C [12]: 58%
- viability, T/C (second compound 0.3 µM, first compound 0.316 µM): 41.7%
- viability, T/C (second compound 0.3 µM, first compound 1 µM): 49.6%
- viability, T/C (second compound 0.3 µM, first compound 3.16 µM): 43.6%
- viability, T/C (second compound 0.3 µM, first compound 10 µM): 2.64%
